Data taken from patent US7598344B2, “Composition, method and use of bi-functional biomaterials” (Board of Regents, The University of Texas System, priority 2002, dated 2009).
Ends that are not written are not given here.

Experiments:
[1] = Biotinylated T59 peptide binding, streptavidin-FITC labeling, on PPyCl; settings: 15 μM peptide, 0.5×0.5 cm^2 substrate
Experimental: (§1) (b) 15 μM peptide bound to 0.5×0.5 cm^2 PPyCl substrate. (c) 15 μM peptide bound to 0.5×0.5 cm^2 PPyPSS substrate. (d) 15 μM peptide bound to 0.5×0.5 cm^2 polystyrene (PS) substrate. All samples were incubated with equal concentrations of streptavidin-FITC. Bar, 10 μm.
(§2) Additional working example data were obtained for the polypyrrole system. A peptide was synthesized whose sequence was determined from the T59 phage (ie., SEQ ID NO. 1).

[2] = Biotinylated T59 peptide binding, streptavidin-FITC labeling, on polystyrene; settings: 15 μM peptide, 0.5×0.5 cm^2 substrate
Experimental: as §1, §2

[3] = serum-containing media, pH 7.4, 15% serum; 3 hr, 7 days, 3 weeks
Experimental: Binding was studied using biotinylated T59 peptide and streptavidin-FITC labeling. (a) control substrate in which no T59 peptide was added, 0.5×0.5 cm2 PPyCl substrates (b) and (c) were incubated with 15 μM peptide, the samples were then placed in serum-containing media (pH 7.4 and 15% serum) for 3 hr (b), 7 days (c), and 3 weeks (d). Bar, 10 μm.
In addition, T59 peptide binding stability in serum-containing medium was also evaluated in working examples using immunofluorescence (note that all previous experiments were done in saline buffer).

Sequence: THRTSTLDYFVI (also: biotinylated, position not given here) [T59 peptide]
- peptide binding to PPyCl [1]: binds to PPyCl
- peptide binding to polystyrene (PS) [2]: not to PPyPSS or to polystyrene (PS)
- binding stability of PPyCl-bound peptide [3]: a significant fraction of T59 peptides remained bound to PPyCl even after 3 weeks
